Reference: ChEMBL document CHEMBL1128843, “Protein kinase C- inhibitors; structure-activity relationships in bis-indole series” (Bioorg Med Chem Lett, 1995)

Target: Protein kinase C alpha type (Homo sapiens, UniProt P17252)
Test: Inhibition of Protein kinase C alpha

SMILES | IC50
COC(=O)c1cc(NC(=O)c2cc(C(=O)c3cc(NC(=O)Cn4cc(C5=C(c6c[nH]c7ccccc67)C(=O)NC5=O)c5ccccc54)cn3C)cn2C)cn1C | 170 nM
CN(C)CCCn1cc(C2=C(c3c[nH]c4ccccc34)C(=O)NC2=O)c2ccccc21 [GF-109203] | 10 nM
COC(=O)c1cc(NC(=O)Cn2cc(C3=C(c4c[nH]c5ccccc45)C(=O)NC3=O)c3ccccc32)cn1C | 500 nM

The next lines start with the values.

IC50 | SMILES
460 nM | CN(C)CCCNC(=O)c1cc(NC(=O)c2cc(NC(=O)c3cc(NC(=O)Cn4cc(C5=C(c6c[nH]c7ccccc67)C(=O)NC5=O)c5ccccc54)cn3C)cn2C)cn1C
630 nM | CN(C)CCCNC(=O)c1cc(NC(=O)c2cc(NC(=O)Cn3cc(C4=C(c5c[nH]c6ccccc56)C(=O)NC4=O)c4ccccc43)cn2C)cn1C
280 nM | COC(=O)c1cc(NC(=O)c2cc(NC(=O)Cn3cc(C4=C(c5c[nH]c6ccccc56)C(=O)NC4=O)c4ccccc43)cn2C)cn1C
1000 nM | CN(C)CCCNC(=O)c1cc(NC(=O)Cn2cc(C3=C(c4c[nH]c5ccccc45)C(=O)NC3=O)c3ccccc32)cn1C
